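96-well plates; 48 h exposure; 5 concentrations. Endpoints by linear interpolation between flanking doses. Not reached: highest tested concentration assigned. The concentration for 50% growth inhibition is given as GI50. Definition used: TGI = concentration required for complete inhibition of growth.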
Legend:
Assay in all cases: NCI tumour cell line growth inhibition, 48 h; in the data active = GI50 below about 0.43 µM; inactive = the rest
[1] = test system: MDA-MB-435
[2] = test system: TK-10 renal
[3] = test system: NCI/ADR-RES ovarian
[4] = test system: SF-268 CNS
[5] = test system: HOP-62 NSCLC
[6] = test system: HCT-15 colon
[7] = test system: UACC-62 melanoma
[8] = test system: MDA-MB-468 breast
[9] = test system: U251 CNS
[10] = test system: SNB-75 CNS
[11] = test system: SF-539 CNS
[12] = test system: EKVX NSCLC
[13] = test system: MALME-3M melanoma
[14] = test system: NCI-H522 lung
[15] = test system: DU-145 prostate
[16] = test system: HS 578T breast
[17] = test system: MOLT-4 leukemia
[18] = test system: PC-3 prostate
[19] = test system: OVCAR-4 ovarian
[20] = test system: A498 renal
[21] = test system: SK-MEL-5 melanoma
[22] = test system: OVCAR-3 ovarian
[23] = test system: CAKI-1 renal
[24] = test system: ACHN renal
[25] = test system: SF-295 CNS
[26] = test system: T-47D breast
[27] = test system: HOP-92 NSCLC
[28] = test system: NCI-H23 lung
[29] = test system: K-562 leukemia
[30] = test system: RPMI-8226 leukemia
[31] = test system: KM12 colon
[32] = test system: MDA-MB-231 breast
[33] = test system: SK-MEL-2 melanoma
[34] = test system: OVCAR-8 ovarian
[35] = test system: SN12C renal
[36] = test system: NCI-H460 lung
[37] = test system: CCRF-CEM leukemia
[38] = test system: COLO 205 colon
[39] = test system: SNB-19 CNS
[40] = test system: HCT-116 colon
[41] = test system: HCC-2998 colon
[42] = test system: MCF7 breast
[43] = test system: SK-MEL-28 melanoma
[44] = test system: HL-60(TB) leukemia
[45] = test system: NCI-H226 lung
[46] = test system: RXF 393 renal
[47] = test system: OVCAR-5 ovarian
[48] = test system: UACC-257 melanoma
[49] = test system: 786-0 renal
[50] = test system: LOX IMVI melanoma
[51] = test system: BT-549 breast
[52] = test system: A549 NSCLC
[53] = test system: SK-OV-3 ovarian
[54] = test system: IGROV1 ovarian
[55] = test system: HT29 colon
[56] = test system: M14 melanoma
[57] = test system: SR leukemia
[58] = test system: SW-620 colon
[59] = test system: UO-31 renal

COc1cc(-c2nc3cc(Cl)c(Cl)cc3[nH]2)ccc1OCc1nnc(-c2ccc(Br)cc2)o1
35.6 µM: TGI [48]
17.5 µM: TGI [2]
9.17 µM: TGI [20]
5.9 µM: TGI [57]
25.3 µM: TGI [56]
28.4 µM: TGI [8]
7.52 µM: TGI [44]
inactive: GI50 [1] 3.97 µM | GI50 [2] 4.37 µM | GI50 [3] 3.42 µM | GI50 [4] 6.22 µM | GI50 [5] 4.17 µM | GI50 [6] 2.53 µM | GI50 [7] 3.05 µM | GI50 [8] 5.98 µM | GI50 [9] 3.82 µM | GI50 [10] 1.56 µM | GI50 [11] 1.81 µM | GI50 [12] 13.3 µM | GI50 [13] 3.25 µM | GI50 [14] 4.53 µM | GI50 [15] 10.1 µM | GI50 [16] 2.72 µM | GI50 [17] 3.72 µM | GI50 [18] 4.27 µM | GI50 [19] 1.92 µM | GI50 [20] 2.9 µM | GI50 [21] 3.16 µM | GI50 [22] 3.33 µM | GI50 [23] 13 µM | GI50 [24] 2.19 µM | GI50 [25] 3.13 µM | GI50 [26] 2.06 µM | GI50 [27] 2.35 µM | GI50 [28] 4.99 µM | GI50 [29] 4.8 µM | GI50 [30] 2.68 µM | GI50 [31] 52 µM | GI50 [32] 2.22 µM | GI50 [33] 15.7 µM | GI50 [34] 2.85 µM | GI50 [35] 2.56 µM | GI50 [36] 6.43 µM | GI50 [37] 6.07 µM | GI50 [38] 24.6 µM | GI50 [39] 14.7 µM | GI50 [40] 4.43 µM | GI50 [41] 29.2 µM | GI50 [42] 3.28 µM | GI50 [43] 3.59 µM | GI50 [44] 2.61 µM | GI50 [45] 1.82 µM | GI50 [46] 1.87 µM | GI50 [47] 5.59 µM | GI50 [48] 11.7 µM | GI50 [49] 3.55 µM | GI50 [50] 2.93 µM | GI50 [51] 3.2 µM | GI50 [52] 7.14 µM | GI50 [53] 11.5 µM | GI50 [54] 11.5 µM | GI50 [55] 3.61 µM | GI50 [56] 6.68 µM | GI50 [57] 2.21 µM | GI50 [58] 5.07 µM | GI50 [59] 1.89 µM
16.4 µM: TGI [13]
7.78 µM: TGI [34]
31.7 µM: TGI [40]
4.95 µM: TGI [26]
17.8 µM: TGI [5]
13.2 µM: TGI [21]
3.87 µM: TGI [10]
4.99 µM: TGI [24]
10.9 µM: TGI [22]
35 µM: TGI [33]
8.27 µM: TGI [16]
27.5 µM: TGI [42]
7.33 µM: TGI [35]
7.36 µM: TGI [6]
4.81 µM: TGI [45]
38.3 µM: TGI [53]
> 100 µM: TGI [3] | TGI [4] | TGI [12] | TGI [14] | TGI [15] | TGI [17] | TGI [18] | TGI [28] | TGI [29] | TGI [31] | TGI [36] | TGI [37] | TGI [38] | TGI [39] | TGI [41] | TGI [47] | TGI [52] | TGI [54] | TGI [55] | TGI [58]
7.74 µM: TGI [51]
13.5 µM: TGI [7]
19 µM: TGI [43]
28.3 µM: TGI [23]
13.1 µM: TGI [49]
3.51 µM: TGI [11]
4.12 µM: TGI [19]
10.7 µM: TGI [25]
10.8 µM: TGI [50]
20 µM: TGI [1] | TGI [9]
7.81 µM: TGI [27]
5.3 µM: TGI [32]
4.61 µM: TGI [46] | TGI [59]
8.25 µM: TGI [30]
